Measurements reported in patent US10188634B2, “3-(3H-imidazo[4,5-C]pyridin-2-yl)-1 H-pyrazolo[4,3-B]pyridines and therapeutic uses thereof” (Samumed, LLC, priority 2015, dated 2019).

Experiments:
[1] = test system: Wnt activity (Sp5-Luc reporter, human Sp5 promoter with eight TCF/LEF binding sites) in SW480 colon carcinoma cells; assay: Screening assay for Wnt activity: Sp5-Luc reporter gene assay in SW480 cells; assay type: cell-based; conditions: 10-point dose-response starting from 10 μM, overnight incubation
Method in brief: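 SW480 cells stably carrying Sp5-Luc reporter (eight TCF/LEF sites) plated at 4,000/well in 1% FBS medium with compound (10-point 1:3 series from 10 μM, 0.1% DMSO) overnight at 37 °C. BrightGlo luminescence normalized to DMSO; EC50 by four-parameter fit, else % inhibition at 10 μM.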

[2] = test system: primary human mesenchymal stem cells (hMSCs); assay: Induction of chondrogenesis in primary human mesenchymal stem cells (hMSCs), nodule imaging with Rhodamine B / Nile Red; assay type: cell-based; conditions: for Emax: hMSCs chondrogenesis, TGF-β3 (10 ng/mL) as positive control, read-out: Max. Activity as % TGF-β3 activity; for EC50: hMSCs, concentration required to induce 50% levels of chondrogenesis vs TGF-β3 positive control, read-out: Conc (nM) of 50% TGF-β3 activity
Method in brief: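 Passage 3-6 hMSCs cultured 6 days at 37° C in incomplete chondrogenic induction medium with compound (2700-10 nM, 96-well; 5000-2.2 nM, 384-well; 0.03% DMSO), TGF-β3 10 ng/mL as positive control. Fixed nodules stained with Rhodamine B/Nile Red, imaged at 531/625 nm; nodule area normalized to DMSO wells for EC50, maximum activity and dose at maximum.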

**Q.** `FC1(F)CCN(Cc2cncc(-c3ccc4[nH]nc(-c5nc6c(-c7ccsc7)cncc6[nH]5)c4n3)c2)C1` [Compound 278, 5-(5-((3,3-difluoropyrrolidin-1-yl)methyl)pyridin-3-yl)-3-(7-(thiophen-3-yl)-3H-imidazo[4,5-c]pyridin-2-yl)-1H-pyrazolo[4,3-b]pyridine] was tested. Which EC50 [1] did it give?
**A.** Its EC50 is 1040 nM.

**Q.** What about the Emax [2] of the same compound?
**A.** Its Emax is 67%.

**Q.** What about the EC50 [2] of the same compound?
**A.** Its EC50 is 10 nM.

**Q.** With `CC(C)Nc1cncc(-c2ccc3[nH]nc(-c4nc5c(-c6ccoc6)cncc5[nH]4)c3n2)c1` [Compound 292, 5-(3-(7-(Furan-3-yl)-3H-imidazo[4,5-c]pyridin-2-yl)-1H-pyrazolo[4,3-b]pyridin-5-yl)-N-isopropylpyridin-3-amine] as the compound, how does the EC50 [1] read?
**A.** The EC50 was 597 nM.

**Q.** What about the Emax [2] of the same compound?
**A.** The Emax was 75%.

**Q.** And the EC50 [2]?
**A.** Its EC50 is 30 nM.

**Q.** Which results are given for `CN(C)c1cncc(-c2ccc3[nH]nc(-c4nc5c(-c6cccs6)cncc5[nH]4)c3n2)c1` [Compound 315, N,N-Dimethyl-5-(3-(7-(thiophen-2-yl)-3H-imidazo[4,5-c]pyridin-2-yl)-1H-pyrazolo[4,3-b]pyridin-5-yl)pyridin-3-amine]?
**A.** EC50 [1]: 710 nM; Emax [2]: 66%; EC50 [2]: 10 nM

**Q.** `Cc1ccc(-c2cncc3[nH]c(-c4n[nH]c5ccc(-c6cncc(N)c6)nc45)nc23)s1` [Compound 367, 5-(3-(7-(5-Methylthiophen-2-yl)-3H-imidazo[4,5-c]pyridin-2-yl)-1H-pyrazolo[4,3-b]pyridin-5-yl)pyridin-3-amine] was tested. Which EC50 [1] did it give?
**A.** Its EC50 is 41 nM.

**Q.** What about the Emax [2] of the same compound?
**A.** The Emax was 79%.

**Q.** What about the EC50 [2] of the same compound?
**A.** Its EC50 is 30 nM.

**Q.** With `CC(C)Nc1cncc(-c2ccc3[nH]nc(-c4nc5c(-c6cc(F)cc(NCCN(C)C)c6)cncc5[nH]4)c3n2)c1` [Compound 432, N^1-(3-Fluoro-5-(2-(5-(5-(isopropylamino)pyridin-3-yl)-1H-pyrazolo[4,3-b]pyridin-3-yl)-3H-imidazo[4,5-c]pyridin-7-yl)phenyl)-N^2,N^2-dimethylethane-1,2-diamine] as the compound, how does the EC50 [1] read?
**A.** The EC50 was 1660 nM.

**Q.** What about the Emax [2] of the same compound?
**A.** The Emax was 97%.

**Q.** And the EC50 [2]?
**A.** The EC50 was 300 nM.

**Q.** `Cc1ccncc1-c1ccc2[nH]nc(-c3nc4c(-c5cc(F)cc(CNS(C)(=O)=O)c5)cncc4[nH]3)c2n1` [Compound 453, N-(3-Fluoro-5-(2-(5-(4-methylpyridin-3-yl)-1H-pyrazolo[4,3-b]pyridin-3-yl)-3H-imidazo[4,5-c]pyridin-7-yl)benzyl)methanesulfonamide] was tested. Which EC50 [1] did it give?
**A.** Its EC50 is 3210 nM.

**Q.** And the Emax [2]?
**A.** Its Emax is 35%.

**Q.** Which EC50 [1] does the source give for `CN(C)CCOc1cncc(-c2ccc3[nH]nc(-c4nc5c(-c6cccc(F)c6)cncc5[nH]4)c3n2)c1` [Compound 487, 2-((5-(3-(7-(3-Fluorophenyl)-3H-imidazo[4,5-c]pyridin-2-yl)-1H-pyrazolo[4,3-b]pyridin-5-yl)pyridin-3-yl)oxy)-N,N-dimethylethan-1-amine] here?
**A.** The EC50 was 3440 nM.

**Q.** And the Emax [2]?
**A.** Its Emax is 55%.

**Q.** And the EC50 [2]?
**A.** The EC50 was 2 nM.

**Q.** What does the source list for `COc1cncc(-c2ccc3[nH]nc(-c4nc5c(-c6cccc(F)c6)cncc5[nH]4)c3n2)c1` [Compound 488, 3-(7-(3-Fluorophenyl)-3H-imidazo[4,5-c]pyridin-2-yl)-5-(5-methoxylpyridin-3-yl)-1H-pyrazolo[4,3-b]pyridine]?
**A.** EC50 [1]: 24 nM; Emax [2]: 56%; EC50 [2]: 21 nM

**Q.** For `CC(C)CC(=O)Nc1cncc(-c2ccc3[nH]nc(-c4nc5c(-c6ccc(Cl)s6)cncc5[nH]4)c3n2)c1` [Compound 992, N-(5-(3-(7-(5-Chlorothiophen-2-yl)-3H-imidazo[4,5-c]pyridin-2-yl)-1H-pyrazolo[4,3-b]pyridin-5-yl)pyridin-3-yl)-3-methylbutanamide], which EC50 [1] is on record?
**A.** Its EC50 is 4080 nM.

**Q.** What about the Emax [2] of the same compound?
**A.** Its Emax is 61%.

**Q.** What about the EC50 [2] of the same compound?
**A.** Its EC50 is 10 nM.

**Q.** Which results are given for `CC(C)(C)C(=O)Nc1cncc(-c2ccc3[nH]nc(-c4nc5c(-c6ccc(Cl)s6)cncc5[nH]4)c3n2)c1` [Compound 998, N-(5-(3-(7-(5-Chlorothiophen-2-yl)-3H-imidazo[4,5-c]pyridin-2-yl)-1H-pyrazolo[4,3-b]pyridin-5-yl)pyridin-3-yl)pivalamide]?
**A.** EC50 [1]: 551 nM; Emax [2]: 85%; EC50 [2]: 10 nM

**Q.** What does the source list for `Clc1ccc(-c2cncc3[nH]c(-c4n[nH]c5ccc(-c6cncc(CN7CCCC7)c6)nc45)nc23)s1` [Compound 1004, 3-(7-(5-Chlorothiophen-2-yl)-3H-imidazo[4,5-c]pyridin-2-yl)-5-(5-(pyrrolidin-1-ylmethyl)pyridin-3-yl)-1H-pyrazolo[4,3-b]pyridine]?
**A.** EC50 [1]: 3790 nM; Emax [2]: 62%; EC50 [2]: 10 nM

**Q.** `O=C(Nc1cncc(-c2ccc3[nH]nc(-c4nc5c(-c6ccc(Cl)s6)cncc5[nH]4)c3n2)c1)C1CCC1` [Compound 1011, N-(5-(3-(7-(5-Chlorothiophen-2-yl)-3H-imidazo[4,5-c]pyridin-2-yl)-1H-pyrazolo[4,3-b]pyridin-5-yl)pyridin-3-yl)cyclobutanecarboxamide] was tested. Which EC50 [1] did it give?
**A.** Its EC50 is 800 nM.

**Q.** What about the Emax [2] of the same compound?
**A.** The Emax was 68%.

**Q.** What about the EC50 [2] of the same compound?
**A.** The EC50 was 30 nM.
